Activity calls are given as the source filed them.
How the values were obtained:
[1] = HepG2 cell cytotoxicity, dose response, cytotoxicity control, ATP luminescence, cherry-pick, activator set 2 (AID 1053143); format: functional, cell-based
[2] = molecular target: Nonstructural protein 1 (Influenza A virus, UniProt Q194T2); format: functional, Influenza A virus (A/California/07/2009(H1N1))
[3] = HEK293T cytotoxicity, dose response, cytotoxicity control for miR-122 modulator project, cell-based, inhibitor set, cherry-pick, set 2 (AID 720697); format: functional
[4] = A549 cell cytotoxicity, dose response, cytotoxicity control, 24 h, CellTiter-Glo luminescence, cherry-picks (AID 1053115); format: functional, cell-based; conditions: A549, 24 h
[5] = HEK293T cytotoxicity, dose response, cytotoxicity control for miR-122 modulator project, cell-based, activator set, cherry-pick (AID 720690); format: functional;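 further: HEK293T human cells scored for general mammalian cytotoxicity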
[6] = miR-122 activators in hepatoma reporter cells, dose response, cell-based, Huh7 psiCHECK-miR122, Renilla luciferase, cherry-picked (AID 651956); format: functional;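 further: huh7 hepatoma cells stably carrying a psiCHECK-2 miR-122 sensor plasmid; renilla luciferase signal reporting endogenous miR-122 activity after 48 h compound exposure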
[7] = molecular target: Paired box protein Pax-8 (Homo sapiens, UniProt Q06710); assay: inhibitors of PAX8-driven TPO luciferase reporter, dose response, RMG-I cells, cherry-pick (AID 687027); format: functional, cell-based;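 further: luciferase reporter driven by Pax8 target thyroperoxidase promoter measured by SteadyGlo luminescence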
Paired box protein Pax-8, sequence (Q06710 whole entry): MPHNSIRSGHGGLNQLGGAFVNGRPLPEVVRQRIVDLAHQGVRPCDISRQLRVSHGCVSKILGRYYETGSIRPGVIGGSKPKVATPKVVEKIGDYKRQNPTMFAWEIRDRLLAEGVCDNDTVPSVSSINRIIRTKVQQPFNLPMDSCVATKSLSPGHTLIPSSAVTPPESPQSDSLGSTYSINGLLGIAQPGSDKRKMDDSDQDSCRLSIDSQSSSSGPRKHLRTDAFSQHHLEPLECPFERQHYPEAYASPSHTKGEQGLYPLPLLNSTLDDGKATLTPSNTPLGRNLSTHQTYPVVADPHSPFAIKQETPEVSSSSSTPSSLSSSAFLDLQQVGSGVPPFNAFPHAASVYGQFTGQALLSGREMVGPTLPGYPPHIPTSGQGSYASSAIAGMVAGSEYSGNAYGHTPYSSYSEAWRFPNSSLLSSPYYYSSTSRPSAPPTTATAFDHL

[8] = A549 cell cytotoxicity, dose response, CellTiter-Glo luminescence, dry powder, set 17 (AID 1117284); format: functional, cell-based
[9] = P. falciparum ATP4 D1247Y mutant growth inhibitors, dose response, NITD609-resistant line, SYBR Green, dry powder (AID 1159571); format: functional, cell-based;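 further: parasites synchronized at ring stage by sorbitol before testing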
[10] = P. falciparum Dd2 growth inhibitors, dose response, SYBR Green, cherry-picked samples (AID 1159567); format: functional, cell-based
[11] = P. falciparum Dd2 growth inhibitors, dose response, SYBR Green, dry powder samples, set 9 (AID 1159568); format: functional, cell-based
[12] = P. falciparum 3D7-ScDHODH growth inhibitors, dose response, SYBR Green, dry powder samples (AID 1159570); format: functional, cell-based;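 further: parasite growth measured after 72 hours of compound exposure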
[13] = inhibitors of clade B AD8 Env fusion, dose response, cell-based, cherry-pick (AID 652062); format: functional;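 further: luciferase signal from cell-cell fusion driven by HIV-1 clade B AD8 Env; potency is for inhibitors of fusion seen as a drop in luminescence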
[14] = HepG2 cell cytotoxicity, dose response, cytotoxicity control, plate reader, dry powder samples (AID 1159569); format: functional, cell-based;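 further: inhibitor potency with signal falling toward the positive control level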
[15] = P. falciparum Dd2 growth inhibitors, dose response, SYBR Green, dry powder samples (AID 1159566); format: functional, cell-based;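 further: potency for growth inhibition with lower SYBR green DNA signal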
[16] = MITF: Counter assay: A375 proliferation Measured in Cell-Based System Using Plate Reader - 2084-03_Inhibitor_Dose_DryPowder_Activity_Set8.; format: functional; conditions: A-375
[17] = MITF Orthogonal Assay: SK-MEL-5 CTG Assay Measured in Cell-Based System Using Plate Reader - 2084-02_Inhibitor_Dose_DryPowder_Activity_Set7.; format: functional
[18] = TRPM1 promoter luciferase reporter signal decrease, dose response, MITF inhibitor project, cell-based, SK-MEL-5, dry powder, set 8 (AID 624430); format: functional
[19] = Late stage assay provider results from the probe development effort to identify selective inhibitors of heat shock protein 90 (HSP90): Absorbance-based cell proliferation assay in MCF7 cells.; format: functional
[20] = Late stage assay provider results from the probe development effort to identify selective inhibitors of heat shock protein 90 (HSP90): Absorbance-based cell proliferation assay in SKBR3 cells.; format: functional; conditions: SK-BR-3
[21] = molecular target: T1, Oxysterols receptor LXR-beta (Homo sapiens, UniProt P55055); assay: LXR agonists, Gal4 luciferase reporter, dose response, counter-screen for ssDAF-12 agonist project, cell-based, luminescence, HEK293, S. stercoralis campaign (AID 720737); format: functional; conditions: read-out: IC50 (the source's name)
T1 sequence (P55055 whole entry): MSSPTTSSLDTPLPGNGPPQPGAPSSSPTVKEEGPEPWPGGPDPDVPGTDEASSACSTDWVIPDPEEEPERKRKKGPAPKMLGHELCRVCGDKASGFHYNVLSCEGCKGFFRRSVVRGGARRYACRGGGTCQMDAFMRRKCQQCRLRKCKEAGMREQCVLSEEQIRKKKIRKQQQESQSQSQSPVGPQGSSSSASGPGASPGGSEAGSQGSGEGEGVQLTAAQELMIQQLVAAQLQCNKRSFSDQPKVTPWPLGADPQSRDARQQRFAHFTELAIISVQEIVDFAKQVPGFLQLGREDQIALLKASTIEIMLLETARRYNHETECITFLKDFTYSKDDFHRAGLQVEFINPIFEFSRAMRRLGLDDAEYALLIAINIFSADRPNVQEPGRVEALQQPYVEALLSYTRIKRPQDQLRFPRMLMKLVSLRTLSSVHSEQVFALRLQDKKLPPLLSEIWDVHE

[22] = Luminescence-based cell-based high throughput dose response assay to identify activators of the DAF-12 from the parasite S. stercoralis (ssDAF-12).; format: functional
[23] = HepG2 cell cytotoxicity, dose response, cytotoxicity control, cherry-picked samples (AID 1159577); format: functional, cell-based

Nonstructural protein 1, sequence (Q194T2 whole entry): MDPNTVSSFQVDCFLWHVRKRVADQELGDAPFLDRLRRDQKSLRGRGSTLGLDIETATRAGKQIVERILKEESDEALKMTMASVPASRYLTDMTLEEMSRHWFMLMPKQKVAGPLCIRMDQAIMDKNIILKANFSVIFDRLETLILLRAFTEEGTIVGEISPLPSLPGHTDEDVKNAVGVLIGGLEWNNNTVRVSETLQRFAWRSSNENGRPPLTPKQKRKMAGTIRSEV

SMILES: c1ccc(-c2cnc(-c3ccccn3)nn2)cc1
- AC50 [1]: 26 µM (active)
- IC50 [2]: 18.9 µM (active)

SMILES: C[C@H](O)C#Cc1ccc2c(c1)O[C@H](CN(C)Cc1ccc(-c3ccccc3)cc1)[C@@H](C)CN([C@H](C)CO)S2(=O)=O
- AC50 [3]: 7.51 µM (active)
- AC50 [4]: 59.6 µM (active)
- AC50 [5]: 16.7 µM (active)
- AC50 [6]: 6.13 µM (active)
- AC50 [7]: 15.9 µM (active)
- AC50 [8]: 35.1 µM (active)

SMILES: C[C@@H]1CN([C@H](C)CO)S(=O)(=O)c2ccc(C#C[C@@H](C)O)cc2O[C@H]1CN(C)Cc1ccc(-c2ccccc2)cc1
- AC50 [4]: > 60 µM (inactive)
- AC50 [8]: > 52 µM (inactive)

SMILES: CCCNC(=O)N1[C@H](C#N)[C@H](c2ccc(-c3cccc(OC)c3)cc2)[C@@H]1CO
- AC50 [9]: 0.278 µM (active)
- AC50 [10]: 0.56 µM (active)
- AC50 [11]: 0.171 µM (active)
- AC50 [12]: 1.4 µM (active)
- AC50 [13]: 25.5 µM (active)
- AC50 [14]: 90.7 µM (active)
- AC50 [15]: 0.168 µM (active)

SMILES: COc1ccc(NC2=C(C)C(=O)c3ccccc3C2=O)cc1
- AC50 [16]: > 70 µM (inactive)
- AC50 [17]: 0.533 µM (active)
- AC50 [18]: 14.3 µM (active)

SMILES: CC(C)(C)c1ccc(NC2=CC(=O)c3ccccc3C2=O)cc1
- AC50 [16]: > 70 µM (inactive)
- AC50 [17]: 3.03 µM (active)
- AC50 [18]: 13.9 µM (active)

SMILES: COC(=O)CCCCOc1ccc2cc(C#N)c(=O)oc2c1
- IC50 [19]: > 100 µM (inactive)
- IC50 [20]: > 100 µM (inactive)

SMILES: Cc1cccc(NC(=O)c2coc(=O)c(Br)c2)n1
- IC50 [19]: 27.3 µM (inactive)
- IC50 [20]: 45.8 µM (inactive)

SMILES: Cn1/c(=N\C(=O)c2ccco2)sc2ccccc21
- EC50 [21]: > 67.5 µM (inactive)
- IC50 [22]: > 67.5 µM (inactive)

SMILES: COc1ccc2c3c(n(C)c2c1)[C@@H](CO)NCC31CN(Cc2ccc(-c3ccccn3)cc2)C1
- AC50 [23]: 20.4 µM (active)
- AC50 [10]: 1.66 µM (active)
